One molecule from US20260098017A1, “NOVEL AROMATIC RING DERIVATIVE CONTAINING AMIDE SUBSTITUTION AND USE THEREOF” (TIANJIN PHARMACEUTICAL BIOTECHNOLOGY CO., LTD., priority 2022, published 2026) can be followed below.

In test [1] the target is JAK1 JH1 kinase (Homo sapiens, UniProt P23458). The test is described as follows: JAK1 JH1 enzyme assay in vitro (TR-FRET). It is filed as biochemical. As to conditions: read-out: JAK 1 JH1 IC50.
Test [2] has as its target JAK2 JH1 kinase (Homo sapiens, UniProt O60674). Kind of test: JAK2 JH1 enzyme assay in vitro (TR-FRET). The test is classed as biochemical. As to conditions: read-out: JAK 2 JH1 IC50. In general terms: Time-resolved FRET reads energy transfer from a long-lived donor to a nearby acceptor.
Test [3] has as its target T1, TYK2 JH1 kinase (Homo sapiens, UniProt P29597).
T1 sequence (P29597 897-1176 limits assumed): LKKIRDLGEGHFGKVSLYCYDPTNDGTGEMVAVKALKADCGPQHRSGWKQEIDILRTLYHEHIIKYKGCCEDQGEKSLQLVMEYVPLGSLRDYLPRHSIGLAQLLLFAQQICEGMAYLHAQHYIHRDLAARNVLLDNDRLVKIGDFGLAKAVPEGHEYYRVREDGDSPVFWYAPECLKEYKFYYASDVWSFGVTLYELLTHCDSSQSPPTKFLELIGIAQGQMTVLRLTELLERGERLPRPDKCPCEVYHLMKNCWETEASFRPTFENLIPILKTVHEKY
The test is described as follows: TYK2 JH1 enzyme assay in vitro (TR-FRET). It is filed as biochemical.

For test [4], the system named is mouse asthma model induced by OVA. The test is described as follows: Mouse asthma model induced by OVA: inflammatory cells in bronchoalveolar lavage fluid. It is filed as in vivo. The method, then: The efficacy of the compounds according to the present invention in a mouse asthma model induced by OVA could be assessed using the following method:
Test sample: the compound of Example 3 was weighed accurately, and dissolved in DMSO to prepare a solution at a concentration of 2 mg/mL.
30 female BALB/c mice were adaptively fed. After one week, 10 mice were randomly taken out and fed as a blank control group, and 20 mice were selected to establish the asthma model. The model mice were intraperitoneally injected with 0.2 mL of sensitizing solution for sensitization respectively on 0, 7 and 14 days. The sensitization solution contained 50 μg of OVA and 2 mg of Al(OH)3. The blank control group received an equivalent volume of physiological saline.
From day 21 to day 23 after sensitization, the mice in the model group and the administration group were subjected to nebulization stimulation with 5% OVA for 30 min, and the mice in the blank control group received nebulization with physiological saline for the same duration.
30 min before daily stimulation of the mice, 50 μl of physiological saline was administered endotracheally to mice in the blank control and model groups, and 50 μl of the corresponding drug was administered endotracheally to mice in the Example 3 compound group, once daily for 3 consecutive days.
After the airway hyperresponsiveness measurement, the mice were euthanized by cervical dislocation and fixed on a dissecting tray. The abdomens and thoracic cavities of the mice were opened, and the neck skin and excess tissues were excised to expose the mouse trachea. A small incision was made on the transverse axis of the trachea with small scissors, a pre-prepared 1 mL syringe needle was inserted therein, and the needle was fixed with surgical thread. 0.5 mL of pre-cooled phosphate-buffer solution (PBS) was aspirated with a 1 ml syringe and slowly injected into the lungs of the mice, followed by slow withdrawal. Each mouse was lavaged once, and a total of about 0.4 mL of lavage fluid was collected. The number of inflammatory cells in the bronchoalveolar lavage fluid was measured by a cell counter.
Statistical analysis was conducted using SPSS software, Measurement data were expressed as mean±standard deviation. One Way ANOVA was used for inter-group comparisons, LSD test was used for those with homogeneous variance, and Dunnett-t test was used for those with heterogeneous variance. Differences were statistically significant with P<0.05.

Test [5] has as its system imiquimod-induced mouse psoriasis-like model. Kind of test: Imiquimod-induced mouse psoriasis-like model (PASI score). It is filed as in vivo. The following applies: oral gavage, 10 mg/kg, 25 mg/kg, 50 mg/kg, bid, compared with the model group.
[6] abbreviates: 2 mg/mL, 50 μL endotracheally, once daily for 3 days.

JAK2 JH1 kinase, sequence (O60674 849-1124 limits assumed): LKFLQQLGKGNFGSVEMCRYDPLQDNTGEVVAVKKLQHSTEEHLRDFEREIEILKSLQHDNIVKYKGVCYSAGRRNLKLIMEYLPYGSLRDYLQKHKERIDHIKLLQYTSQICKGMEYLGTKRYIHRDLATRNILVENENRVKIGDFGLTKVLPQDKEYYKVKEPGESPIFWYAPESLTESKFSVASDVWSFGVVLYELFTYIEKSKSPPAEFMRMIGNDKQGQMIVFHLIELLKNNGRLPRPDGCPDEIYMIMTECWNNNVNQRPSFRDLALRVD
JAK1 JH1 kinase, sequence (P23458 875-1153 limits assumed): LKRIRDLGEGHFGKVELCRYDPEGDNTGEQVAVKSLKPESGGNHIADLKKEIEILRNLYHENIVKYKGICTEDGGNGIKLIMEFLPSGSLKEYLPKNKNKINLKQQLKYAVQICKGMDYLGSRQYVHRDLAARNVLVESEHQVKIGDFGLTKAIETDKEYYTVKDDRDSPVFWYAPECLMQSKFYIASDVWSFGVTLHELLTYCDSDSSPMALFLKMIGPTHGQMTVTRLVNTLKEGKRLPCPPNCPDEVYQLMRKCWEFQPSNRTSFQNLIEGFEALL

What is called IC50 is the concentration that inhibits the measured activity by half. As to `[2H]C([2H])([2H])NC(=O)c1nnc(NC(=O)C2CC2)cc1Nc1cccc(C(=O)Nc2cccc(C)c2)c1OC` [Example 3], the half-inhibitory concentration (IC50) in test [1] was greater than 10 µM. Also, in test [2], the 50% inhibitory concentration (IC50) is greater than 10 µM. Also, the IC50 in test [3] was greater than 10 µM. In test [4] (setting [6]), the “Number of inflammatory cells: Leukocyte” value was 1,241.7 ± 618.1 ×10^3, the “Number of inflammatory cells: Lymphocyte” value is given as 791.7 ± 524.9 ×10^3, the “Number of inflammatory cells: Monocyte” value is reported as 58.3 ± 37.0 ×10^3 and the “Number of inflammatory cells: Neutrophil” value is given as 391.7 ± 206.3 ×10^3. For the same molecule, in test [4] (pre-administration before stimulation), the “Effect on number of inflammatory cells (white blood cells, lymphocytes) compared with the model group” value was “significantly reduce the number of inflammatory cells”. Also, the “Improvement of psoriasis symptoms by oral administration” value in test [5] is listed as “effectively improve psoriasis symptoms”.
